What was measured:
[1] = test system: B. anthracis murB-2 antisense strain
[2] = test system: S. aureus engineered with murB antisense; format: cell-based, Staphylococcus aureus

| Structure (SMILES) | IC50 shift (ratio of EC50 with and without xylose) [1] | change of potency / sensitivity in presence of inducer [2] |
| --- | --- | --- |
| CO/N=C(\C(=O)N[C@@H]1C(=O)N2C(C(=O)O)=C(COC(C)=O)CS[C@H]12)c1csc(N)n1 [cefotaxime] | 343 |  |
| CO[C@@]1(NC(=O)Cc2cccs2)C(=O)N2C(C(=O)O)=C(COC(N)=O)CS[C@@H]21 [cefoxitin] |  | increase in potency |
| Cc1onc(-c2c(Cl)cccc2Cl)c1C(=O)N[C@@H]1C(=O)N2[C@@H]1SC(C)(C)[C@@H]2C(=O)O [dicloxacillin] |  | increase in potency |

From patent US8298543B2, “Identification and application of antibiotic synergy” (priority 2005, dated 2012)
